Experimental findings from US20030091601A1, “Use of topical arginine to enhance wound healing” (ABAT Inc., priority 2001, published 2003) are described below.

In this test the test system is wound site. Briefly: Hydroxyproline (OHP) content of subcutaneous PVA sponges fed by mini-osmotic pump at a dorsal skin incision, index of wound reparative collagen accumulation. It counts as in vivo, rats. To be noted: for OHP (collagen synthesis): day 14 post-wounding, mean±SEM. The protocol:
Twenty-eight (28) male adult rats were obtained from a commercial breeder. Rats were housed individually in stainless steel cages at a constant temperature (25°±1° C.) and relative humidity (40-50%). The cages were kept in a room with a twelve-hour light-twelve-hour dark cycle. All animals were allowed at least one week of acclimatization to the laboratory conditions prior to use in the experiments. During this time, they were fed a standard laboratory chow and drank tap water ad libitum.
After the period of acclimatization, the rats were randomly placed into four groups, seven rats per group. Under pentobarbital anesthesia, their backs were shaved and scrubbed with an organic iodine solution and a dorsal skin incision was made. Subcutaneously at the skin incision, a mini-osmotic pump (model 2002, 0.5 μl/hr, Alzet Co.) attached to a polyvinyl alcohol sponge was inserted. Pumps were filled either with PBS or various solutions of arginine in PBS as indicated on Table 1. The rats tolerated the procedure well and recovered uneventfully.
The 1M solution delivers 2 mg/animal/day into the sponge. On the fourteenth day post-wounding, rats were sacrificed with an overdose of pentobarbital. The pelt containing the healing scar was excised. The PVA sponges were removed, carefully cleared of surrounding tissue and frozen at −20° C. for subsequent determination of hydroxyproline content as an index of wound reparative collagen accumulation using the method of Woessner. See J. Woessner, Determination of Hydroxproline in Tissue and Protein Samples Containing Small Proportions of this Amino Acid, Biochem. Biophys., Vol.93, p. 440 (1961).
Twenty (20) male adult rats were obtained from a commercial breeder. As in Experimental Example 1, rats were housed individually in stainless steel cages at a constant temperature (25°±1° C.) and relative humidity (40-50%). The cages were kept in a room with a twelve hour light-twelve hour dark cycle. All animals were allowed at least one week of acclimatization to the laboratory conditions prior to use in the experiments. During this time, they were fed a standard laboratory chow and drank tap water ad libitum.
After the period of acclimatization, the rats were randomly placed into two groups of ten rats. Under pentobarbital anesthesia, the rats' backs were shaved and scrubbed with an organic iodine solution and a dorsal skin incision was made. As in Experimental Example 1, a mini-osmotic pump (model 2002, 0.5 μl/hr, Alzet Co.) attached to a polyvinyl alcohol sponge was inserted subcutaneously at the incision site. Pumps were filled either with PBS or a solution of 1M arginine in PBS as indicated on Table 3. The rats tolerated the procedure well and recovered uneventfully.
Twenty-one (21) male adult rats were obtained from a commercial breeder. As in Example Experiments 1 and 2, rats were housed individually in stainless steel cages at a constant temperature (25°±1° C.) and relative humidity (40-50%). The cages were kept in a room with a twelve hour light-twelve hour dark cycle. All animals were allowed at least one week of acclimatization to the laboratory conditions prior to use in the experiments. During this time, they were fed a standard laboratory chow and drank tap water ad libitum.
After the period of acclimatization, the rats were randomly placed into two groups, eight (8) rats were placed into Group 1 and treated with PBS only and thirteen (13) rats were placed into Group 2 and treated with 1M omithine in PBS. Under pentobarbital anesthesia, the rats' backs were shave and scrubbed with an organic iodine solution and a dorsal skin incision was made. Subcutaneously at the skin incision, a mini-osmotic pump (model 2002, 0.5 μl/hr, Alzet Co.) attached to a polyvinyl alcohol sponge was inserted. The mini-osmotic pumps were filled either with PBS or a solution of 1M omithine in PBS as indicated on Table 5 below. The rats tolerated the procedure well and recovered uneventfully. […]

On to `N=C(N)NCCC[C@H](N)C(=O)O` [Arginine, arginine], for which the “increase in collagen biosynthesis accumulation compared to the PBS (control) group” value is, setting by setting: (Experimental Example 1, arginine 0.01M) at least 10%; (Experimental Example 1, arginine 0.1M) at least 10%; (Experimental Example 1, arginine 1M) “over 60%”; (Experimental Example 2, arginine 1M) “over 30%”. The “OHP (collagen synthesis)” value came to 633 ± 54 μg/100 mg sponge (Experimental Example 1, arginine 0.01 M in PBS by mini-osmotic pump, PBS control 569 ± 27); 698 ± 74 μg/100 mg sponge (Experimental Example 1, arginine 0.1 M in PBS by mini-osmotic pump, PBS control 569 ± 27); 928 ± 55 μg/100 mg sponge (Experimental Example 1, arginine 1 M in PBS by mini-osmotic pump (2 mg/animal/day), PBS control 569 ± 27); 797 ± 48 μg/100 mg sponge (Experimental Example 2, arginine 1 M in PBS by mini-osmotic pump (2 mg/animal/day), PBS control 574 ± 43).

On to `NCCC[C@H](N)C(=O)O` [Ornithine, ornithine], for which the “increase in collagen biosynthesis accumulation compared to the PBS (control) group” value (Experimental Example 3, ornithine 1M) was “over 45%”. Further, the “OHP (collagen synthesis)” value (Experimental Example 3, ornithine 1 M in PBS by mini-osmotic pump, PBS control 588 ± 45) is on record as 854 ± 71 μg/100 mg sponge.
